Key:
Format in all cases: cell-based, human
LOX-1 = LOX-1 expression in HASMC by real time PCR and western blot; conditions: for oxLDL-induced LOX-1 expression (mRNA): HASMC treated with oxLDL plus suppressor, FIGS. 19, 22, 26; for protein levels of LOX-1 (western blot): HASMC with suppressor, with or without oxLDL, FIGS. 20, 23, 28
Procedure: With reference to FIG. 2, there center on the expression of oxLDL and LOX-1 in human aortic smooth muscle cells. In the present embodiment, a primary human aortic smooth muscle cells (HASMC) cell line purchased from Cascade Biologics (OR, USA) is prepared and treated with various levels of oxLDL. More specifically, the HASMC cell line is incubated in a commercial smooth muscle cell growth supplement (SMGS) medium (Cascade Biologics, OR, USA) at 37° C. in a humidified atmosphere of 95% air and 5% CO2.
In the present embodiment, the HASMC cell line is grown in a 6-well plate till at a density of 2×10^5 cell/well, and then randomly assigned into four groups. The four groups of HASMC are co-cultured with 0, 20, 40, and 60 μg/ml of oxLDL individually for 24 hours, followed by analyzing the gene expression of HASMC via real time polymerase chain reaction (PCR) and western blot. Total RNA samples of the four groups of HASMC are prepared by using a Trizol® reagent (Invitrogen, CA, USA), and further quantitatively confirmed by a spectrophotometer at A260/A280 readings. Then, cDNA samples of the four groups of HASMC are synthesized by using a random primer and a MultiScribe™ Reverse Transcriptase Kit (Applied Biosystems Inc, CA, USA). The cDNA samples of the four groups of HASMC are sequentially diluted in 2×SYBR Green PCR Master Mix (Applied Biosystems Inc, CA, USA) to carry out quantitative real time PCR analysis. In the present invention, a primer pair of LOX-1 is designed and used in the real time PCR analysis, wherein the primer pair of LOX-1 is set forth in SEQ ID NO. 3 and 4.
On the other hand, protein samples of the four groups of HASMC are prepared by harvesting the four groups of HASMC in RIPA buffer (Invitrogen, CA, USA) firstly and centrifuged at 4° C. 1,2000 rpm to obtain supernatants as total cell lysate of the four groups of HASMC. In the present embodiment, the four groups of protein lysate are denatured in a mixture of 2% SDS, 10 mM dithiothreitol, 60 mM Tris-HCl (pH6.8) and 0.1% bromphenol blue, and then analyzed by polyacrylamide/SDS gel. Data obtained from the polyacrylamide/SDS gel analysis are further transferred to PVDF membrane for western blot assay.
In FIG. 9, the expression of LOX-1 in HASMC under various levels of let-7g is monitored and reordered. […]
(§1) In the present embodiment, the HASMCs are randomly assigned into four groups, including groups (O1), as a control; (O2), with treatment of oxLDL; (O3), with co-transfection of the OCT-1 shRNA; and (O4), with co-transfection of the OCT-1 shRNA and treatment of oxLDL, wherein total RNA samples and protein sample of those groups are extracted and analyzed by the real time PCR and the western blot of the present invention. […]

let-7g = let-7g expression in HASMC by northern blot and real time PCR; conditions: HASMC treated with oxLDL plus suppressor; FIGS. 18, 21, 25
Procedure: In FIGS. 7 and 8, there is the relationship between oxLDL and let-7g in the HASMC. In the present embodiment, the HASMC are treated with various levels of oxLDL, for example 0, 20, 40 and 60 μg/ml, in order to monitor and to recorder the effect of oxLDL on let-7g. Similarly, the HASMC cell is grown in a 6-well plate till at a density of 2×10^5 cell/well, and then randomly assigned into plural groups with the treatment of 0, 20, 40 and 60 μg/ml oxLDL individually for 24 hours. Finally, total RNA samples of each group of HASMC are analyzed by northern blot and quantified real time PCR via above protocols. In the present embodiment, a primer pair of let-7g as set forth in SEQ ID NO: 7 and 8 is used in the teal time PCR analysis according to the same PCR program described above. Also, the northern blot of the present invention is determined by using a miRNA northern blot assay kit (Applied Biosystems, CA, USA). […]
as §1

OCT-1 = OCT-1 expression in HASMC by real time PCR and western blot; conditions: for protein levels of OCT-1 (western blot): HASMC with suppressor, with or without oxLDL, FIGS. 23, 28
Procedure: The following trials stress on the mechanism between let-7g, LOX-1, oxLDL and OCT-1. In FIG. 17, the expression of OCT-1 under various levels of oxLDL is shown. In the present embodiment, […], and then total RNA samples and protein samples of the HASMC are prepared and analyzed by the real time PCR and western blot assay of the present invention. Precisely, the preparation of the total RNA samples and the protein samples of the HASMC, also the PCR program and western blot assay are performed according to the above protocols. Moreover, a primer pair of OCT-1 set forth in SEQ ID NO. 19 and 20 is designed and used in real time PCR analysis, and a commercial OCT-1 antibody (Sigma-Aldrich Inc, MO, USA) is used in western blot assay.
In the present embodiment, primer pairs set forth in SEQ ID NO. 3, 4, 7, 8, 19, 20, the LOX-1 antibody, and the OCT-1 antibody are used respectively in PCR or western blot assay.
With reference to FIG. […] More specifically, […], such as 0, 25, 50, and 75 μg/ml, […] 2000, […] by real time PCR and western blot according to the protocols described above. Moreover, primer pairs set forth in SEQ ID NO. 19 and 20, and the OCT-1 antibody are used respectively in PCR or western blot analysis.

3'UTR region of LOX-1 = experiment: LOX-1 3'UTR luciferase reporter assay in CRL-1999 cells; conditions: groups U1 to U7, FIG. 12
From the text: Referring to FIGS. 10 and 11, the relationship between oxLDL, LOX-1 and let-7g is further identified. In the present invention, the 3′UTR region of LOX-1 is cloned into a commercial vector, preferably downstream of a reporter gene, such as a luciferase gene, for the sake of studying the effect of oxLDL and let-7g on LOX-1 by estimating the activity of the reporter gene. In the present embodiment, a pMIR-LOX-1-3UTR vector is obtained by PCR amplifying the 3′UTR region of LOX-1 in the chromosome DNA of HASMC with a primer pair set forth in SEQ ID NO. 9 and 10; and cloning the amplified 3′UTR region of LOX-1 into a pMIR-REpORT luciferase vector (Ambion Inc, TX, USA). Furthermore, the pMIR-LOX-1-3UTR vector of the present embodiment is transfected into a human smooth muscle cell line CRL-1999 purchased from ATCC (Manassas, Va., USA) by using lipofectamine 2000 (Invitrogen Inc, CA, USA). In the present embodiment, the CRL-1999 cell line of the present embodiment is incubated in F12K Kaighn's modification medium (GIBCO-BRL, MD, USA) with various levels of oxLDL and let-7g mimic, followed by analyzed the activity of luciferase by a Luciferase Assay System (Promega, WI, USA). […]

Compound | oxLDL-induced LOX-1 expression (mRNA) (LOX-1) | protein levels of LOX-1 (western blot) (LOX-1) | oxLDL-mediated inhibition on let-7g (relative let-7g levels) (let-7g) | protein levels of OCT-1 (western blot) (OCT-1) | oxLDL-induced OCT-1 expression (mRNA) (OCT-1; HASMC treated with oxLDL plus MAPTAM, FIG. 27) | luciferase activity, pMIR-LOX-1-3UTR versus pMIR-LOX-1 mutant 3'UTR (3'UTR region of LOX-1)
COc1ccc2c(c[n+](C)c3c4cc5c(cc4ccc23)OCO5)c1OC [chelerythrine] | inhibited | significant decrease | inhibited | significant decrease | – | –
CC(=O)OCOC(=O)CN(CC(=O)OCOC(C)=O)c1ccc(C)cc1OCCOc1cc(C)ccc1N(CC(=O)OCOC(C)=O)CC(=O)OCOC(C)=O [MAPTAM] | decreased | significant decrease | decreased | significant decrease | decreased | –
let-7g: mature form of microRNA-let-7g, as set forth in SEQ ID NO. 2 (UGAGGUAGUAGUUUGUACAGUU; listed as RNA, chemistry not given here; listed as Homo sapiens) | – | – | – | – | – | targets to the 3′UTR region of LOX-1 to suppress the expression of LOX-1

Source: patent US8716256B2, “Method of therapy and diagnosis of atherosclerosis” (Kaoshiung Medical University, priority 2011, dated 2014)
